Results taken from patent publication US20240368161A1, “CYCLOPROPANECARBOXAMIDE-CONTAINING COMPOUNDS AND APPLICATION THEREOF” (CGENETECH (SUZHOU, CHINA) CO., LTD., priority 2022, published 2024).
Where two headings read alike, the source gives them in different places.

Columns and labels:
JAK1 = JAK1 (Homo sapiens (Human), UniProt P23458); test: JAK1 kinase inhibitory activity determination (HTRF Kinase-TK); type: biochemical; details: JAK1 0.32 ng/μL, ATP 4 μM, substrate 1 μM, 4 h
Experimental: (§1) • JAK1: 0.32 ng/μL, ATP 4 M, substrate 1 μM, time 4 h • JAK2: 0.008 ng/μL, ATP 4 μM, substrate 1 M, time 2 h • JAK3: 0.1 ng/μL, ATP 3 μM, substrate 1 μM, time 3 h
(§2) The half-maximal inhibitory concentration (IC50) was fitted using GraphPad Prism 6 based on the kinase inhibition rates of the compound to be tested at different concentrations.

JAK2 = JAK2 (Homo sapiens (Human), UniProt O60674); test: JAK2 kinase inhibitory activity determination (HTRF Kinase-TK); type: biochemical; details: JAK2 0.008 ng/μL, ATP 4 μM, substrate 1 μM, 2 h
JAK2, sequence (O60674 826-1132): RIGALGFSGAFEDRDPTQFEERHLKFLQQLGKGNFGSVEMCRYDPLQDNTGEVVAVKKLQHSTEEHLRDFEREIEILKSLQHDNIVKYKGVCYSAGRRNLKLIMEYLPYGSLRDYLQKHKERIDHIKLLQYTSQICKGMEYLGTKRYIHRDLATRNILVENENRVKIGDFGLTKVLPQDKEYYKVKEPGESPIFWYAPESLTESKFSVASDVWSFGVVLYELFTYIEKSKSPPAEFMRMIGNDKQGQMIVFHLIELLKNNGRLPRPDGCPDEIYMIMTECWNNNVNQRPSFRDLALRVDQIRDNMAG
Experimental: as §1, §2

JAK3 = JAK3 (Homo sapiens (Human), UniProt P52333); test: JAK3 kinase inhibitory activity determination (HTRF Kinase-TK); type: biochemical; details: JAK3 0.1 ng/μL, ATP 3 μM, substrate 1 μM, 3 h
JAK3, sequence (P52333 795-1124): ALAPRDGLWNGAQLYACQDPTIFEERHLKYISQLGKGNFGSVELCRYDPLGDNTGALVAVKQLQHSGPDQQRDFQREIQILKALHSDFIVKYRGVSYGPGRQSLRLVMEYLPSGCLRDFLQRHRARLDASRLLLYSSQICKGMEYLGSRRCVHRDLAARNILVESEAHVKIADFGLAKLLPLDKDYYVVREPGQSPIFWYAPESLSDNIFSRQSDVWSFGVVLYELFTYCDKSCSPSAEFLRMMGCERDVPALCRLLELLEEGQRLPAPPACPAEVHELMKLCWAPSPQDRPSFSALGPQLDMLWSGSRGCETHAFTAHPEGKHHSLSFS
Experimental: as §1
At the end of incubation, HTRF665/620 signals were read on a multifunctional microplate reader.
as §2

[1] = Oral pharmacokinetic determination in mice; type: in vivo, C57 mice; details: for AUC(0-inf) / AUC(0-t) / Cmax / Tmax / MRT last / MRT inf / half-life: mouse, male C57 mice, plasma; for MRT last: read-out: MRT(0-t); for MRT inf: read-out: MRT(0-∞); for half-life: read-out: T½ (converted)
Experimental: Three healthy male C57 mice, aged 6-8 weeks, were purchased from Shanghai Sippr-BK Laboratory Animal Co. Ltd. (Shanghai, China).
Mice were fasted overnight prior to oral administration, and food supply was resumed 4 h after administration with free access to water. […] blood sampling; approximately 30 μL of blood was collected from the tested animals at 0.125 h, 0.25 h, 0.5 h, 1 h, 2 h, 4 h, 8 h, and 24 h, respectively, after administration and placed in test tubes containing the anticoagulant sodium heparin, which were placed on ice until centrifugation, and within 15 min, centrifuged in a centrifuge at 6800 g for 6 min at 6-8° C., and within 1 h of blood collection/centrifugation, plasma was transferred to appropriately labeled tubes and stored frozen at about −80° C.
Mass spectrometry method: LC-MS/MS-19 (TQ5500) (SCIEX, USA), ion source: ESI source, detection mode: positive ion detection, scanning mode: multi-reaction monitoring (MRM) mode, m/z: 271.10/172.00 Da (Tolbutamide, internal standard).
To 10 μL of the plasma sample, was added 200 μL of internal standard working solution (Tolbutamide, 100 ng/mL), with vortex for 1 min, followed by centrifugation for 10 min at 18,000 g. 200 μL of a supernatant was transferred to a 96-well low volume plate, and 1 μL of the supernatant was taken and injected into LC-MS/MS for analysis.
Pharmacokinetic (PK) parameters were calculated using Phoenix WinNonlin 7.0 software, and oral pharmacokinetic parameters of mice including AUC, Cmax, Tmax, T½, etc., were estimated by the non-compartment model.

JAK1, sequence (P23458 866-1154): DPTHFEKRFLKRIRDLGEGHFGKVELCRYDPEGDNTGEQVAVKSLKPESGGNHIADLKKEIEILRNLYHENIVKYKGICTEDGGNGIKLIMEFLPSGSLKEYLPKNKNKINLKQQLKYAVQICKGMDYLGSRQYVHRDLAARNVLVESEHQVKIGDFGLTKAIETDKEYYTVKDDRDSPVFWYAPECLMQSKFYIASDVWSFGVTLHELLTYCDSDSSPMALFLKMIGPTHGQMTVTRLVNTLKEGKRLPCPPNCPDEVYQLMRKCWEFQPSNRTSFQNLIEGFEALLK

Row | Structure (SMILES) | IC50 (JAK1) [µM] | IC50 (JAK2) [µM] | IC50 (JAK3) [µM] | further results
1 | CCCCC(CC#N)n1cc(-c2cccc3nc(NC(=O)C4CC4)cn23)cn1 (centres unmarked) [Compound 7] | 0.00762 | 0.00172 | – | –
2 | N#CCC1(n2cc(-c3cccc4nc(NC(=O)C5CC5)cn34)cn2)CCCCC1 [Compound 14] | 0.115 | 0.0067 | – | –
3 | CC(C)CS(=O)(=O)C1CCN(Cc2ccc(-c3cccc4nc(NC(=O)C5CC5)cn34)cc2)CC1 [Compound 33] | 0.675 | 0.463 | 8.28 | –
4 | O=C(Nc1nc2cccc(-c3ccc(CN4CCS(=O)(=O)CC4)cc3)n2n1)C1CC1 [Filgotinib, reference compound] | – | – | – | AUC(0-inf) ([1]; oral, dose 5 mg/kg): 2190 ng·h/mL; AUC(0-t) ([1]; oral, dose 5 mg/kg): 2120 ng·h/mL; Cmax ([1]; oral, dose 5 mg/kg): 1710 ng/mL; Tmax ([1]; oral, dose 5 mg/kg): 0.25 h; MRT last ([1]; oral, dose 5 mg/kg): 1.54 h; MRT inf ([1]; oral, dose 5 mg/kg): 1.82 h; half-life ([1]; oral, dose 5 mg/kg): 1.79 h
5 | CC(C)S(=O)(=O)C1CCN(Cc2ccc(-c3cccc4nc(NC(=O)C5CC5)cn34)cc2)CC1 [Compound 32] | 0.956 | 0.448 | 9.64 | –
6 | O=C(Nc1cn2c(-c3ccc(CN4CCC(F)(F)CC4)cc3)cccc2n1)C1CC1 [Compound 28] | 0.0262 | 0.0242 | 0.0949 | –
7 | N#CCC(C1CCCC1)n1cc(-c2cccc3nc(NC(=O)C4CC4)cn23)cn1 (centres unmarked) [Compound 1] | 0.0576 | 0.00413 | – | –
8 | O=C(Nc1nc2cccc(-c3ccc(CN4CCS(=O)(=O)CC4)cc3)n2n1)C1C[C@H]1F (some centres unmarked) [Compound 26] | 1.25 | 1.09 | 3.45 | –
9 | O=C(Nc1nc2cccc(-c3ccc(CN4CCS(=O)(=O)CC4)cc3)n2n1)C1(F)CC1 [Compound 24] | 3.64 | 1.58 | > 10 | –
10 | O=C(Nc1cn2c(-c3ccc(ON4CC[S+]([O-])CC4)cc3)cccc2n1)C1CC1 [Compound 21] | 0.247 | 0.592 | – | –
11 | CS(=O)(=O)C1CN(Cc2ccc(-c3cccc4nc(NC(=O)C5CC5)cn34)cc2)C1 [Compound 15] | – | – | – | systemic exposure (AUC) per unit dose compared to Filgotinib ([1]; mice, oral, unit dose comparison): higher systemic exposure; AUC(0-inf) ([1]; oral (gavage), dose 10 mg/kg): 9880 ng·h/mL; AUC(0-t) ([1]; oral (gavage), dose 10 mg/kg): 9750 ng·h/mL; Cmax ([1]; oral (gavage), dose 10 mg/kg): 6220 ng/mL; Tmax ([1]; oral (gavage), dose 10 mg/kg): 0.29 h; MRT last ([1]; oral (gavage), dose 10 mg/kg): 1.6 h; MRT inf ([1]; oral (gavage), dose 10 mg/kg): 1.7 h; half-life ([1]; oral (gavage), dose 10 mg/kg): 1.31 h
12 | O=C(Nc1nc2cccc(-c3ccc(CN4CCS(=O)(=O)CC4)cc3)n2n1)C1C[C@@H]1F (some centres unmarked) [Compound 27] | 1.08 | 0.415 | 1.92 | –
13 | CCS(=O)(=O)C1CCN(Cc2ccc(-c3cccc4nc(NC(=O)C5CC5)cn34)cc2)CC1 [Compound 30] | 0.387 | 0.162 | 5.59 | –
14 | N#CCC1(n2cc(-c3cccc4nc(NC(=O)C5CC5)cn34)cn2)CCC(F)(F)CC1 [Compound 12] | 0.01 | 0.0007 | – | –
15 | CCCC(CC#N)n1cc(-c2cccc3nc(NC(=O)C4CC4)cn23)cn1 (centres unmarked) [Compound 5] | 0.014 | 0.00181 | – | –
16 | COCC(CC#N)n1cc(-c2cccc3nc(NC(=O)C4CC4)cn23)cn1 (centres unmarked) [Compound 6] | 0.0489 | 0.00949 | – | –
17 | O=C(Nc1nc2cccc(-c3ccc(OC4CCS(=O)(=O)CC4)cc3)n2n1)C1CC1 [Compound 19] | 0.182 | 0.0903 | 0.909 | –
18 | N#CCC(CC1CC1)n1cc(-c2cccc3nc(NC(=O)C4CC4)cn23)cn1 (centres unmarked) [Compound 3] | 0.0378 | 0.00687 | – | –
19 | N#CCC(C1CC1)n1cc(-c2cccc3nc(NC(=O)C4CC4)cn23)cn1 (centres unmarked) [Compound 2] | 0.077 | 0.0135 | – | –
20 | N#CCC(C1CCCC1)n1cc(-c2cccc3nc(NC(=O)C4CC4)nn23)cn1 (centres unmarked) [Compound 11] | 0.0366 | 0.00628 | – | –
21 | O=C(Nc1nc2cccc(-c3ccc(CN4CCS(=O)(=O)CC4)cc3)n2n1)C1CC1(F)F (centres unmarked) [Compound 25] | 0.59 | 1.98 | 7.78 | –
22 | N#CCC1(n2cc(-c3cccc4nc(NC(=O)C5CC5)cn34)cn2)CCC(C(F)(F)F)CC1 (centres unmarked) [Compound 13] | 0.0084 | 0.0008 | 0.0468 | –
23 | N#CCC(CCC(F)(F)F)n1cc(-c2cccc3nc(NC(=O)C4CC4)cn23)cn1 (centres unmarked) [Compound 10] | 0.00664 | 0.00124 | – | –
24 | O=C(Nc1cn2c(-c3ccc(CN4CCS(=O)(=O)CC4)cc3F)cccc2n1)C1CC1F (centres unmarked) [Compound 29] | 0.0887 | 0.17 | 6.11 | –
25 | CCC(CC#N)n1cc(-c2cccc3nc(NC(=O)C4CC4)cn23)cn1 (centres unmarked) [Compound 4] | 0.0195 | 0.00468 | – | –
26 | COCCC(CC#N)n1cc(-c2cccc3nc(NC(=O)C4CC4)cn23)cn1 (centres unmarked) [Compound 9] | 0.0283 | 0.0134 | – | –
